Reference: publication PMC6471485, “Selective Inhibitors of a Human Prolyl Hydroxylase (OGFOD1) Involved in Ribosomal Decoding” (Chemistry (Weinheim an Der Bergstrasse, Germany), 2019)

Experiments:
[1] = system: PHD enzymes in HeLa cells; assay: HIFα Western blot in HeLa cells (activity of PHD enzymes in cells); assay type: cell-based, human; conditions: HeLa cells treated 5 h, anti-HIF-1α Western blot
Protocol: supplemented with 80 µM Zn(II), 70 µM of inhibitor, all in 50 mM Tris-d11, pH 7.5, 10 % D2O, […]
Cell Culture and Immunoblotting
HeLa cells were cultured in DMEM media supplemented with 10 % fetal bovine serum, 4 mM L-glutamine, 100 U/mL penicillin, and 100 µg/mL streptomycin. Cells were treated with the indicated compounds, prepared in 1% DMSO, for 5 h. Following a PBS buffer rinse, cells were lysed in urea/SDS buffer supplemented with 1 mM dithiothreitol. Cell extracts were analyzed by SDS-PAGE, electroblotted onto PVDF membranes (Millipore) and probed with anti-HIF-1α antibody (clone 54, BD Transduction Laboratories) at 1:1000 dilution for 1 h at room temperature. The HRP-conjugated secondary antibody was then applied at room temperature for 1 h. Target proteins were detected with SuperSignal Chemiluminescent […]
ADMET in vitro Predictors
S9 liver microsome stability assays and MDCK-MDR1 efflux assays were carried out for CCT3 and CCT4 by Cyprotex (UK). Additional details are provided later in the Supporting

[2] = biological target: T1, PHD2181-426 (Homo sapiens, UniProt Q9GZT9); assay: PHD2 inhibition assay: hydroxylation of HIF-1a CODD peptide by MALDI-TOF MS; assay type: biochemical
T1 construct: 181-426 (1 µM) was
Protocol: OGFOD1 inhibition assays were performed by determining the extent of hydroxylation of a 20mer fragment of human ribosomal protein S23 (RPS23) containing residues 51-70 (H2N- […]
-CONH2) by matrix-assisted laser desorption/ionization time-of-flight mass spectrometry (MALDI-TOF MS) using a Waters Micromass MALDI micro MX mass spectrometer and MassLynx 4.1, as previously described.[7,8] The optimized hydroxylation assay involved incubation of OGFOD1 (1 µM) with inhibitor (1 % v/v in DMSO) in the presence of (NH4)2Fe(SO4)2 (50 µM), the disodium salt of 2-oxoglutarate (25 µM), […]
OGFOD1 was pre-incubated with inhibitor for 5 min before initiation of the reaction via the addition of the other reagents. Reactions were quenched with formic acid (1 % v/v) after 15 min. Samples were prepared for MALDI using α-cyano-4-hydrocinnamic acid (CHCA; prepared in 50 % acetonitrile) as a matrix. Dose-responses were assessed in 8-point triplicates, normalized to a no enzyme negative control and a no inhibitor positive control. Non-linear regression analysis was performed using Prism (GraphPad).
PHD2181-426 inhibition assays were performed by determining the extent of hydroxylation of a HIF-1a CODD peptide substrate (HIF-1a residues 556-574), using MALDI-TOF MS as described with OGFOD1.[8] The optimized hydroxylation assay involved incubation of PHD2181-426 (1 µM) with inhibitor (1 % v/v in DMSO) in the presence of (NH4)2Fe(SO4)2 (10 µM), the disodium salt of 2-oxoglutarate (60 µM), sodium ascorbate (100 µM), and HIF-1aCODD 556-574 (50 µM) in HEPES (50 mM, pH 7.5) at 37 °C for 15 min. The FIH assay employed MALDI-TOF MS detection of hydroxylation. Reactions consisted of FIH […]
(50 nM), ankyrin peptide (50 µM; […]), the disodium salt of 2- […]
oxoglutarate (100 µM), sodium ascorbate (100 µM), and (NH4)2Fe(SO4)2 (10 µM), and […]

[3] = biological target: Tpa1p (Saccharomyces cerevisiae, UniProt P40032); assay: Tpa1p inhibition assay (Figure S12); assay type: biochemical; conditions: Tpa1p 2 µM (Figure S12)
Chain of Tpa1p (P40032 whole entry): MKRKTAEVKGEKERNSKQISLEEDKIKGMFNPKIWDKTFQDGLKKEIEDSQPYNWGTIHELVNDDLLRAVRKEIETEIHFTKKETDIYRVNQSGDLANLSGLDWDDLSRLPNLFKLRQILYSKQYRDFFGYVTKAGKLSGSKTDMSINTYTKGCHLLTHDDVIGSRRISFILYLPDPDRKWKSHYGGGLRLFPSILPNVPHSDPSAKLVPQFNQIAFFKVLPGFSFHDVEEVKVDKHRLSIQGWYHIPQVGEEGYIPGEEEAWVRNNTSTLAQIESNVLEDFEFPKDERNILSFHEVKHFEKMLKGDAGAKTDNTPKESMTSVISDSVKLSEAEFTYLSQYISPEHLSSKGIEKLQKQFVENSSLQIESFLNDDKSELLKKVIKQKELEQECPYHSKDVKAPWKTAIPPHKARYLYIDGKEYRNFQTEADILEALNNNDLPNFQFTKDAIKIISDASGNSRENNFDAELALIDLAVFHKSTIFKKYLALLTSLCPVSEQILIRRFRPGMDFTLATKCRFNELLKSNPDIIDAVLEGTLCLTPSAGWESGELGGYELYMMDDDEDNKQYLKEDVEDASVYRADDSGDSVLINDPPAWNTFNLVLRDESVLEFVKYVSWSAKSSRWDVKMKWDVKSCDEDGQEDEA

T1 sequence (Q9GZT9 181-426 limits assumed): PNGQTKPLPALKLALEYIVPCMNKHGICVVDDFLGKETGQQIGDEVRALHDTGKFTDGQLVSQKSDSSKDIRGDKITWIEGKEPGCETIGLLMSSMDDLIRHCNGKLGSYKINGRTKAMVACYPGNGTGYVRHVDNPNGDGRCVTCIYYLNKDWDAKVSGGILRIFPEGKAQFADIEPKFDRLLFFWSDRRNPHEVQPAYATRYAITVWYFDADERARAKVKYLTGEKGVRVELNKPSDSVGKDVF

Compound | HIFα stabilization in HeLa cells, in words [1] | IC50 [2] [µM] | inhibition of Tpa1p, in words [3] | inhibition of PHD2 hydroxylation activity, in words ([2]; inhibitor 100 µM, PHD2181-426 1 µM (Figures S2, S8))
Cn1c(O)c(C(=O)CCc2cccs2)c(=O)n(C)c1=O [compound 42] | did not stabilize HIFα | > 100 | potently inhibit | –
Cn1c(O)c(C(=O)CCc2ccccc2)c(=O)n(C)c1=O [compound 26] | did not stabilize HIFα | > 100 | potently inhibit | Lack of inhibition
